From ChEMBL document CHEMBL1153842, “Trioxaquines and heme-artemisinin adducts inhibit the in vitro formation of hemozoin better than chloroquine” (Antimicrob Agents Chemother, 2007) come the findings set out here.

The structures appear in SMILES notation. Activity calls are given as the source filed them. The rule behind the calls is not given here.

Common to all, as to format: functional
For assay [1], the target named is T1, Histidine-rich protein PFHRP-II (Plasmodium falciparum) (UniProt P05227).
T1 sequence (whole entry): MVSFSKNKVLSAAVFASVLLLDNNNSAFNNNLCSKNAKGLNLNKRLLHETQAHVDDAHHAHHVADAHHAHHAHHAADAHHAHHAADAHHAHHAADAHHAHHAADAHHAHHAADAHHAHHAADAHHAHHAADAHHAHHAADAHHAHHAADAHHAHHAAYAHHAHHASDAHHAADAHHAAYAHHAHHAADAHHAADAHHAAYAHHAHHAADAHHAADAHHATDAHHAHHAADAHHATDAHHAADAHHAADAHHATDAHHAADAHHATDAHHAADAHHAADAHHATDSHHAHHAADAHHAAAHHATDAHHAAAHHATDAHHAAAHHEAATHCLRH
Description: Inhibition of beta-hematin formation at drug to heme molar equivalent ratio of 15 by infrared spectra measured after 18 hrs.

The target of assay [2] is T1, Histidine-rich protein PFHRP-II (Plasmodium falciparum). Description: Inhibition of beta-hematin formation at drug to heme molar equivalent ratio of 10 by infrared spectra measured after 18 hrs.
For assay [3] the target is unchanged. Briefly: Inhibition of beta-hematin formation at drug to heme molar equivalent ratio of 3 by infrared spectra measured after 18 hrs.
The target is the same in assay [4]. Description: Inhibition of beta-hematin formation at drug to heme molar equivalent ratio of 2 by infrared spectra measured after 18 hrs.
The target is the same in assay [5]. Briefly: Inhibition of beta-hematin formation at 1:1 drug to heme ratio by infrared spectra measured after 18 hrs.

For the compound `C[C@H]1[C@H](OC(=O)CCC(=O)O)O[C@@H]2O[C@@]3(C)CC[C@H]4[C@H](C)CC[C@@H]1[C@@]24OO3`, the result in assay [1] was inactive. As to `NCCNc1ccnc2cc(Cl)ccc12`, the outcome in assay [2] was Active. Regarding `COc1cc(NC(C)CCCNC2CCC3(CC2)OOC2CCC(C(C)C)=CC2O3)c2ncccc2c1` (centres undefined), the result in assay [3] was Active.

For the compound `CC(C)C1=CC2OC3(CCC(NCCNc4ccnc5cc(Cl)ccc45)CC3)OOC2CC1` (centres undefined), the result in assay [4] was Active.

Consider `COc1cc(NC(C)CCCN)c2ncccc2c1` (centres undefined), for which, in assay [1], the result was inactive. As to `C[C@@H]1CC[C@H]2[C@@H](C)C(=O)O[C@@H]3O[C@@]4(C)CC[C@@H]1[C@]32OO4`, the outcome in assay [5] was Active. Also, the outcome in assay [1] was inactive. `CO[C@H]1O[C@@H]2O[C@@]3(C)CC[C@H]4[C@H](C)CC[C@@H]([C@H]1C)[C@@]24OO3`: the result in assay [1] was inactive. Turning to `CCN(CC)CCCC(C)Nc1ccnc2cc(Cl)ccc12` (centres undefined), in assay [2], the result was Active.
